Data reported in ChEMBL document CHEMBL4699579, “A Peptidyl Inhibitor that Blocks Calcineurin-NFAT Interaction and Prevents Acute Lung Injury” (J Med Chem, 2020).
The source made the active and inactive calls. The rule behind the calls is not given here. Positions of bridges follow the written chain, without caps; N, C: chain ends. Non-standard residues stand in square brackets, D forms with d. Residues, ends and D or L forms follow the SMILES beside them. Chains are numbered I, II in the order given. *: point of attachment. 2Nal = N[C@@H](Cc1ccc2ccccc2c1)C(=O)O; Val(3-OH) = CC(C)(O)[C@H](N)C(=O)O; Tle = CC(C)(C)[C@H](N)C(=O)O; X1 = O=C(c1ccnc(Cl)c1Cl)*; AEEA = NCCOCCOCC(=O)O

Key:
[1] = Plasma concentration in BALB/c mouse at 5 mg/kg, iv after 2 to 4 hrs by LC-MS/MS analysis; assay type: ADME, organism-based; details: in vivo, time 2-4 hrs
[2] = Plasma concentration in BALB/c mouse at 5 mg/kg, iv after 8 hrs by LC-MS/MS analysis; assay type: ADME, organism-based
Mus musculus [3] = experiment: Anti-inflammatory activity in BALB/c mouse model of LPS-induced ALI assessed as reduction in LPS-induced TNFalpha in BALF at 5 mg/kg, iv pre-treated 4 hrs before LPS stimulation for 16 hrs; assay type: functional, organism-based; details: time 20.0 hrs
[4] = Stability in simulated intestinal fluid at 5 uM incubated for 2 hrs by LC/MS/MS analysis
[5] = Drug concentration in BALB/c mouse muscle at 5 mg/kg, iv after 8 hrs by LC-MS/MS analysis; assay type: ADME, organism-based, Muscle tissue; details: in vivo
Mus musculus [6] = experiment: Anti-inflammatory activity in BALB/c mouse model of LPS-induced ALI assessed as reduction in LPS-induced BALF protein levels at 0.3 to 3 mg/kg dosed via intranasal instillation pre-treated 2 hrs before LPS stimulation for 6 hrs; assay type: functional
Mus musculus [7] = experiment: Anti-inflammatory activity in BALB/c mouse model of LPS-induced ALI assessed as reduction in LPS-induced BALF protein levels at 5 mg/kg, iv pre-treated 4 hrs before LPS stimulation for 16 hrs; assay type: functional, organism-based; details: time 20.0 hrs
HeLa = experiment: Toxicity in human HeLa cells assessed as reduction in cell viability up to 25 uM incubated for 72 hrs by MTT assay; assay type: cell-based
[8] = Drug distribution in BALB/c mouse muscle at […], sc using compound labelled with cyanine-5 measured after 24 hrs by fluorescence based assay; assay type: ADME, organism-based, Muscle tissue; details: in vivo, dose 2.4 mg/kg
[9] = Drug distribution in BALB/c mouse neutrophils at […], ip using compound labelled with cyanine-5 measured after 24 hrs by flow cytometry; assay type: ADME, organism-based, Neutrophil; details: in vivo, dose 2.4 mg/kg
[10] = Drug distribution in BALB/c mouse spleen at […], sc using compound labelled with cyanine-5 measured after 24 hrs by fluorescence based assay; assay type: ADME, organism-based; details: in vivo, dose 2.4 mg/kg
[11] = Drug distribution in BALB/c mouse kidney at 0.6 mg/kg, iv using compound labelled with cyanine-5 measured after 24 hrs by fluorescence based assay; assay type: ADME, organism-based; details: in vivo
Mus musculus [12] = experiment: Anti-inflammatory activity in BALB/c mouse model of LPS-induced ALI assessed as reduction in LPS-induced TNFalpha in lung at 5 mg/kg, iv pre-treated 4 hrs before LPS stimulation for 16 hrs; assay type: functional; details: time 20 hrs
Mus musculus [13] = experiment: Anti-inflammatory activity in BALB/c mouse model of LPS-induced ALI assessed as effect on LPS-induced TNFalpha in kidney at 5 mg/kg, iv pre-treated 4 hrs before LPS stimulation for 16 hrs; assay type: functional, organism-based; details: time 20.0 hrs
Mus musculus [14] = experiment: Anti-inflammatory activity in BALB/c mouse model of LPS-induced ALI assessed as reduction in LPS-induced lung wet-to-dry ratios at 3 mg/kg dosed via intranasal instillation pre-treated 2 hrs before LPS stimulation for 6 hrs and measured at 24 hrs; assay type: functional, organism-based
Macrophage = experiment: Inhibition of calcineurin-NFATc3 interaction in mouse lung macrophages assessed as reduction in LPS-induced TNFalpha production at 0.1 to 10 uM pre-incubated 4 hrs before LPS stimulation for 8 hrs by ELISA; assay type: tissue-based; details: DISRUPTING AGENT, dose microM 0.1-10, time 12.0 hrs
[15] = Clearance in C57BL/6 mouse assessed as clearance time at 5 mg/kg using TMR-labeled compound instilled into both nostrils by flow cytometry; assay type: ADME, organism-based; details: in vivo, inhaled_or_intranasal
[16] = Drug metabolism in BALB/c mouse kidney at 5 mg/kg, iv after 8 hrs by LC-MS/MS analysis; assay type: ADME, organism-based; details: in vivo
[17] = Drug distribution in BALB/c mouse muscle at […], ip using compound labelled with cyanine-5 measured after 24 hrs by fluorescence based assay; assay type: ADME, organism-based, Muscle tissue; details: in vivo, dose 2.4 mg/kg
[18] = Drug distribution in BALB/c mouse lymph nodes at […], sc using compound labelled with cyanine-5 measured after 24 hrs by fluorescence based assay; assay type: ADME, organism-based, Lymph node; details: dose 2.4 mg/kg, read-out: Drug uptake
Mus musculus [19] = experiment: Anti-inflammatory activity in BALB/c mouse model of LPS-induced ALI assessed as reduction in LPS-induced IL6 in BALF at 5 mg/kg, iv pre-treated 4 hrs before LPS stimulation for 16 hrs; assay type: functional, organism-based; details: time 20.0 hrs
Mus musculus [20] = experiment: Anti-inflammatory activity in BALB/c mouse model of LPS-induced ALI assessed as reduction in LPS-induced BALF protein levels at 3 mg/kg dosed via intranasal instillation pre-treated 2 hrs before LPS stimulation for 6 hrs and measured at 24 hrs; assay type: functional, organism-based
Mus musculus [21] = experiment: Anti-inflammatory activity in BALB/c mouse model of LPS-induced ALI assessed as reduction in LPS-induced TNFalpha in BALF at 3 mg/kg dosed via intranasal instillation pre-treated 2 hrs before LPS stimulation for 6 hrs and measured at 24 hrs; assay type: functional, organism-based
[22] = Drug metabolism in BALB/c mouse plasma at 5 mg/kg, iv after 8 hrs by LC-MS/MS analysis; assay type: ADME, organism-based; details: in vivo
[23] = Drug concentration in BALB/c mouse spleen at 5 mg/kg, iv after 8 hrs by LC-MS/MS analysis; assay type: ADME, organism-based; details: read-out: Drug uptake
[24] = Drug distribution in BALB/c mouse plasma at […], ip using compound labelled with cyanine-5 measured after 24 hrs by fluorescence based assay; assay type: ADME, organism-based; details: in vivo, dose 2.4 mg/kg
[25] = Stability in mouse liver microsomes assessed as compound degradation at 100 uM after 1 hr in presence of NADPH by LC-MS/MS analysis; assay type: ADME, Microsome; details: read-out: Drug degradation
[26] = Toxicity in mouse lung macrophages cells assessed as reduction in cell viability up to 25 uM incubated for 72 hrs by MTT assay; assay type: tissue-based; details: macrophage
[27] = Drug concentration in BALB/c mouse brain at 5 mg/kg, iv after 8 hrs by LC-MS/MS analysis; assay type: ADME, organism-based; details: in vivo
[28] = Drug distribution in BALB/c mouse kidney at […], ip using compound labelled with cyanine-5 measured after 24 hrs by fluorescence based assay; assay type: ADME, organism-based; details: in vivo, dose 2.4 mg/kg
[29] = Drug distribution in BALB/c mouse liver at […], sc using compound labelled with cyanine-5 measured after 24 hrs by fluorescence based assay; assay type: ADME, organism-based; details: in vivo, dose 2.4 mg/kg
[30] = Stability in simulated gastric fluid at 5 uM incubated for 2 hrs by LC/MS/MS analysis
[31] = Drug distribution in BALB/c mouse liver at 0.6 mg/kg, iv using compound labelled with cyanine-5 measured after 24 hrs by fluorescence based assay; assay type: ADME, organism-based; details: in vivo
[32] = Drug distribution in BALB/c mouse heart at […], ip using compound labelled with cyanine-5 measured after 24 hrs by fluorescence based assay; assay type: ADME, organism-based; details: dose 2.4 mg/kg, read-out: Drug uptake
[33] = Drug distribution in BALB/c mouse heart at […], sc using compound labelled with cyanine-5 measured after 24 hrs by fluorescence based assay; assay type: ADME, organism-based; details: dose 2.4 mg/kg, read-out: Drug uptake
Mus musculus [34] = experiment: Anti-inflammatory activity in BALB/c mouse model of LPS-induced ALI assessed as reduction in LPS-induced lung wet-to-dry ratios at 3 mg/kg dosed via intranasal instillation pre-treated 2 hrs before LPS stimulation for 6 hrs; assay type: functional, organism-based; details: time 8.0 hrs
[35] = Drug distribution in BALB/c mouse spleen at 0.6 mg/kg, iv using compound labelled with cyanine-5 measured after 24 hrs by fluorescence based assay; assay type: ADME, organism-based; details: in vivo

CC[C@H](C)[C@H](NC(=O)[C@@H](NC(=O)c1ccnc(Cl)c1Cl)C(C)(C)C)C(=O)N[C@H](C(=O)N[C@H](C(=O)N[C@H](C(=O)N[C@@H](CCC(N)=O)C(=O)N[C@@H](Cc1c[nH]cn1)C(=O)N[C@H](CC(C)C)C(=O)N[C@@H](CO)C(=O)NCCOCCOCC(=O)N[C@@H](CCCCNC(=O)CC[C@@H]1NC(=O)[C@@H](CCCNC(=N)N)NC(=O)[C@H](CCCNC(=N)N)NC(=O)[C@@H](CCCNC(=N)N)NC(=O)[C@H](CCCNC(=N)N)NC(=O)[C@H](Cc2ccc3ccccc3c2)NC(=O)[C@@H](Cc2ccccc2)NC1=O)C(N)=O)[C@@H](C)O)[C@@H](C)CC)C(C)(C)O (I: X1-[Tle]I[Val(3-OH)]ITQH[dL]S[AEEA]K-NH2 / II: cyclo([2Nal]R[dR]R[dR]E[dF]); amide I:11-II:6)
concentration [1]: < 5 nM | concentration at 8 h [2]: 13.5 nM | Activity (Mus musculus [3]): Active | Stability [4]: Stable | Drug uptake [5]: Not Active | Activity (Mus musculus [6]; dose mg/kg 0.3-3, time 8.0 hrs): Dose-dependent effect | minimal effective dose (Mus musculus [6]; dose mg/kg 0.3-3, time 8 hrs, read-out: MED): 1 mg/kg | Activity (Mus musculus [7]): Active | Activity (HeLa): Non-Toxic | Drug uptake [8]: Not Active | Drug uptake [9]: Active | Drug uptake [10]: Active | Drug uptake [11]: Active | inhibition in vivo at 5 mg/kg (Mus musculus [12]): 100% | Activity (Mus musculus [13]): inactive | Activity (Mus musculus [14]): inactive | inhibition (Macrophage): Dose-dependent effect | CL [15]: 16 h | Drug metabolism [16]: Metabolite_Detected | Drug uptake [17]: Not Active | concentration at 24 h [18]: > 50 nM | Activity (Mus musculus [19]): Active | Activity (Mus musculus [20]): inactive | Activity (Mus musculus [21]): inactive | Drug metabolism [22]: Metabolite_Detected | concentration at 8 h [23]: 15 nM | Drug uptake [24]: Not Active | metabolised at 1 h, 100 µM [25]: ≤ 25% | Activity [26]: Non-Toxic | Drug uptake [27]: Not Active | Drug uptake [28]: Active | Drug uptake [29]: Active | Stability [30]: Stable | Drug uptake [31]: Active | concentration at 24 h [32]: > 50 nM | concentration at 24 h [33]: > 50 nM | Activity (Mus musculus [34]): Active | Drug uptake [35]: Active
